Structures are written as SMILES.

A word on the Ki: it is a dissociation constant, usually derived from enzyme kinetics or from competition with a known ligand. Low readings indicate higher affinity, high ones lower affinity.

One series concerns the target T1, synthetic Aβ(1-40) (Homo sapiens, UniProt P05067).
T1 construct: host or cells: chemically synthesised peptide
Nature of the series: Competition of [3H]BTA-1 binding from synthetic Aβ(1-40). The following applies: for Ki: inhibition constant for competition of [3H]BTA-1 binding from synthetic Aβ(1-40), phosphate-buffered saline pH 7.4. How it is done:
The characteristics of benzofuran derivative binding were analyzed using synthetic Aβ(1-40) and 2-(4′-[^3H]methylamino-phenyl)-benzothiazole ([^3H]BTA-1) in phosphate-buffered saline (pH 7.4) as previously described. Klunk et al., Life Sci. 69:1471 (2001); Mathis et al., Bioorg. Med. Chem. Lett., 12:295 (2002).
The characteristics of benzofuran derivative binding were analyzed using synthetic Aβ(1-40) and 2-(4′-[^3H]methylamino-phenyl)-benzothiazole ([^3H]BTA-1) in phosphate-buffered saline (pH 7.4), as previously described. Klunk et al., Life Sci. 69:1471 (2001); Mathis et al., Bioorg. Med. Chem. Lett., 12:295 (2002). The table below lists the inhibition constants (Ki) of the four compounds shown for competition of [^3H]BTA-1 binding from synthetic Aβ(1-40).

Series [1] can be described thus: Baboon brain entry study (PET). Format: in vivo. The following applies: 40 kg baboon, 8 mCi intravenously, PET imaging over 2 h post injection. Here is the method: A 40 kg baboon was anesthetized, immobilized, and placed on a ventilator. The baboon was positioned in a PET scanner to image the brain, and a transmission scan was performed to correct for attenuation. The baboon was injected intravenously with a solution containing 8 mCi of 5-Methoxy-2-(4′-fluorophenyl)benzofuran, and the brain was imaged in a series of increasing data collection time bins over 2 h post injection. Following data acquisition, the images were reconstructed and regions of interest were drawn. Decay and […] corrected time-activity curves (TAC) were generated for each of the regions to determine the quantitative time course of radioactivity in each brain region.

T1 sequence (P05067 672-711): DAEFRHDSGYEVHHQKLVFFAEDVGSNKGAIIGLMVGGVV

For `COc1ccc2oc(-c3ccc(F)cc3)cc2c1` [drawing 23], the inhibition constant (Ki) at synthetic Aβ(1-40) came out at 3.7 nM.

For `Oc1ccc2oc(-c3ccc(OCCCF)cc3)cc2c1`, the Ki on synthetic Aβ(1-40) amounted to 1.2 nM.

In the case of `COc1ccc2cc(-c3ccc(F)cc3)oc2c1`, the Ki on synthetic Aβ(1-40) turned out to be 3.9 nM.

With `CN(C)c1ccc2oc(-c3ccc(F)cc3)cc2c1`, the Ki on synthetic Aβ(1-40) came out at 2 nM.

Turning to `Nc1ccc2oc(-c3ccc(F)cc3)cc2c1`, at synthetic Aβ(1-40), the Ki amounted to 28 nM.

As for `CNc1ccc2oc(-c3ccc(F)cc3)cc2c1`, the affinity at synthetic Aβ(1-40) corresponds to a Ki of 2.8 nM.

For `Oc1ccc2oc(-c3ccc(F)cc3)cc2c1`, the Ki at synthetic Aβ(1-40) worked out at 27.7 nM.

In the case of `Oc1ccc2cc(-c3ccc(F)cc3)oc2c1`, the inhibitory constant (Ki) at synthetic Aβ(1-40) is 96 nM.

Regarding `COc1ccc2oc(-c3ccc(F)cc3)cc2c1` [5-Methoxy-2-(4′-fluorophenyl)benzofuran], the “affinity of the ligand in vitro for aggregated amyloid” value at synthetic Aβ(1-40) (in vitro, in words) was “relatively high affinity”. Moreover, in series [1], the “brain penetration of the radiotracer (time-activity curves)” value is given as “excellent brain penetration” and the “clearance of radioactivity from normal baboon brain (time-activity curves)” value was “rapid clearance”.

These data come from patent publication US8138360B2, “Isotopically-labeled benzofuran compounds as imaging agents for amyloidogenic proteins” (University of Pittsburgh—of the Commonwealth System of …, priority 2005, dated 2012).
